Data as given in PMC10854695, “Using Flavonoid Substitution Status to Predict Anticancer Effects in Human Melanoma Cancers: An In Vitro Study” (Cancers, 2024).

Experiments:
[1] = tested on: C32 melanoma cells; assay: MTT cell viability assay, C32; details: Homo sapiens, read-out: IC50, cytotoxic activity, MTT test;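 further: MTT added for 2 h, cells lysed in DMSO, absorbance read at 570 nm, compound vehicle kept at or below 0.1% DMSO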
[2] = tested on: A375 melanoma cells; assay: MTT cell viability assay, A375; details: Homo sapiens;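 further: Read-out is formazan absorbance at 570 nm after 2 h with MTT, with compounds in at most 0.1% v/v DMSO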
Experimental: (§1) The MTT colorimetric assay was performed as a preliminary evaluation of the cytotoxicity of the selected flavonoids according to the method described and validated by Strawa et al. [21]. Briefly, melanoma cells and fibroblasts were seeded in 96-well microplates at a density of 1 × 10^4 cells per well. Fibroblasts were used as a control cell line in order to assess the selectivity of the compounds. […] Subsequently, the cells were washed with PBS, incubated with MTT solution for 2 h, and lysed with dimethyl sulfoxide (DMSO) supplemented with 1% (v/v) Sorensen’s glycine buffer. The absorbance was measured using a microplate reader (EPOCH 2, BioTek, Winooski, VT, USA) at a wavelength of 570 nm. The compounds were used at a final DMSO concentration of no more than 0.1% (v/v) in each well. The results were generated from at least three independent experiments. […] The IC50 values were calculated with GraphPad Prism 9 software (GraphPad Software, San Diego, CA, USA).

[3] = tested on: C32 melanoma cells; assay: Neutral red uptake (NRU) assay, C32; details: Homo sapiens
Experimental: (§2) The NRU (neutral red uptake) was conducted as previously described by Szoka and co-workers, with some modifications [22]. Briefly, melanoma cells and fibroblasts were seeded in microplates at the density of 1 × 10^4 cells per well and allowed to adhere for 24 h. […] After treatment, the culture medium was replaced with a neutral red solution (40 µg/mL). An additional 2 h of incubation was performed. The neutral red solution was then removed and the neutral red accumulated in the cells was dissolved in 50% EtOH with 1% of the glacial acetic acid. The absorbance was estimated at 540 nm and IC50 values were calculated using GraphPad Prism software (GraphPad Software, San Diego, CA, USA).

[4] = tested on: A375 melanoma cells; assay: Neutral red uptake (NRU) assay, A375; details: Homo sapiens, read-out: IC50, cytotoxic activity, NRU assay
Experimental: as §2

[5] = MTT cell viability assay, normal cells; details: human;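 further: fibroblasts served as non-cancer comparison line for selectivity versus melanoma cells, MTT reduction read as absorbance at 570 nm after 2 h dye exposure, compounds in ≤0.1% DMSO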
Experimental: as §1

[6] = Neutral red uptake (NRU) assay, normal cells; details: human
Experimental: as §2

[7] = A-375, 24 h, read-out: IC50, cytotoxic activity, MTT test, A375, 24 h
[8] = A-375, 48 h, read-out: IC50, cytotoxic activity, MTT test, A375, 48 h
[9] = A-375, 72 h, read-out: IC50, cytotoxic activity, MTT test, A375, 72 h
[10] = C32, 24 h, read-out: IC50, cytotoxic activity, NRU assay, C32, 24 h
[11] = C32, 48 h, read-out: IC50, cytotoxic activity, NRU assay, C32, 48 h
[12] = C32, 72 h, read-out: IC50, cytotoxic activity, NRU assay, C32, 72 h
[13] = human skin fibroblasts (CCD25Sk)
[14] = A-375, 24 h, read-out: IC50, cytotoxic activity, MTT test
[15] = A-375, 48 h, read-out: IC50, cytotoxic activity, MTT test
[16] = A-375, 72 h, read-out: IC50, cytotoxic activity, MTT test
[17] = C32, 24 h, read-out: IC50, cytotoxic activity, NRU assay
[18] = C32, 48 h, read-out: IC50, cytotoxic activity, NRU assay
[19] = C32, 72 h, read-out: IC50, cytotoxic activity, NRU assay

Row | SMILES | IC50 at 24 h [6, 13] [µM] | IC50 at 48 h [6, 13] [µM] | IC50 at 72 h [6, 13] [µM] | IC50 ([1]; C32, 24 h) [µM] | IC50 ([1]; C32, 48 h) [µM] | IC50 ([1]; C32, 72 h) [µM] | IC50 [2, 7] [µM] | IC50 [2, 8] [µM] | IC50 [2, 9] [µM] | IC50 [3, 10] [µM] | IC50 [3, 11] [µM] | IC50 [3, 12] [µM] | IC50 ([4]; A-375, 24 h) [µM] | IC50 ([4]; A-375, 48 h) [µM] | IC50 ([4]; A-375, 72 h) [µM] | IC50 at 24 h [5, 13] [µM] | IC50 at 48 h [5, 13] [µM] | IC50 at 72 h [5, 13] [µM] | also measured
1 | O=c1cc(-c2ccc(O)cc2)oc2c([C@@H]3O[C@H](CO)[C@@H](O)[C@H](O)[C@H]3O)c(O)cc(O)c12 [Compound 2, apigenin 8-C-glucoside] | > 200 | > 200 | > 200 | > 200 | > 200 | > 200 | > 200 | > 200 | > 200 | > 200 | > 200 | > 200 | > 200 | > 200 | > 200 | > 200 | > 200 | > 200 | 
2 | O=c1cc(-c2ccc(O)cc2)oc2cc(OC3OC(CO)C(O)C(O)C3O)cc(O)c12 (stereo not drawn) [Compound 3, apigenin 7-O-glucoside] | > 200 | > 200 | > 200 | > 200 | > 200 | > 200 | > 200 | > 200 | > 200 | > 200 | > 200 | > 200 | > 200 | > 200 | > 200 | > 200 | > 200 | > 200 | 
3 | O=C(O)C1OC(Oc2cc(O)c3c(=O)cc(-c4ccc(O)cc4)oc3c2)C(O)C(O)C1O (stereo not drawn) [Compound 4, apigenin 7-O-glucuronide] | > 200 | > 200 | > 200 | > 200 | > 200 | > 200 | > 200 | > 200 | > 200 | > 200 | > 200 | > 200 | > 200 | > 200 | > 200 | > 200 | > 200 | > 200 | 
4 | COc1cc(O)c2c(=O)c(O)c(-c3ccc(O)c(O)c3)oc2c1 [Compound 25, 7-methoxyquercetin] | > 200 | 66.3 ± 5.6 | 38.4 ± 3.4 | > 200 | 100 to 200 | 37.7 ± 2.5 | 100 to 200 | 42.1 ± 3 | 25.1 ± 2.3 | > 200 | 55.4 ± 4.3 | 28.4 ± 2.5 | > 200 | 63.4 ± 4.8 | 43.7 ± 3.5 | 100 to 200 | 45.3 ± 2.3 | 35.7 ± 2.9 | 
5 | COc1cc(-c2oc3cc(O)cc(O)c3c(=O)c2O)ccc1O [Compound 26, 3′-methoxyquercetin] |  |  |  | > 200 | 100 to 200 | 49.3 ± 3.6 |  |  |  |  |  |  | > 200 | 100 to 200 | 78.1 ± 6.5 |  |  |  | IC50 [2, 14]: 86.3 ± 5.9 µM; IC50 [2, 15]: 68.5 ± 3.9 µM; IC50 [2, 16]: 50.8 ± 4 µM; IC50 [3, 17]: > 200 µM; IC50 [3, 18]: 100 to 200 µM; IC50 [3, 19]: 65.1 ± 4 µM; IC50 at 24 h [5]: 100 to 200 µM; IC50 at 48 h [5]: 68.5 ± 5.4 µM; IC50 at 72 h [5]: 46.2 ± 3.3 µM; IC50 at 24 h [6]: > 200 µM; IC50 at 48 h [6]: 78.7 ± 5.5 µM; IC50 at 72 h [6]: 69.2 ± 4.6 µM
6 | COc1cc(-c2cc(=O)c3c(O)cc(O)cc3o2)cc(OC)c1O [Compound 31, tricin] |  |  |  | > 200 | 100 to 200 | 100 to 200 |  |  |  |  |  |  | > 200 | > 200 | > 200 |  |  |  | IC50 [2, 14]: > 200 µM; IC50 [2, 15]: 100 to 200 µM; IC50 [2, 16]: 100 to 200 µM; IC50 [3, 17]: > 200 µM; IC50 [3, 18]: > 200 µM; IC50 [3, 19]: > 200 µM; IC50 at 24 h [5]: 100 to 200 µM; IC50 at 48 h [5]: 80.3 ± 6.6 µM; IC50 at 72 h [5]: 56.4 ± 4.7 µM; IC50 at 24 h [6]: > 200 µM; IC50 at 48 h [6]: > 200 µM; IC50 at 72 h [6]: > 200 µM

Continued, in another order:

Row | IC50 at 24 h [6, 13] [µM] | IC50 at 48 h [6, 13] [µM] | IC50 at 72 h [6, 13] [µM] | SMILES | IC50 ([1]; C32, 24 h) [µM] | IC50 ([1]; C32, 48 h) [µM] | IC50 ([1]; C32, 72 h) [µM] | IC50 [2, 7] [µM] | IC50 [2, 8] [µM] | IC50 [2, 9] [µM] | IC50 [3, 10] [µM] | IC50 [3, 11] [µM] | IC50 [3, 12] [µM] | IC50 ([4]; A-375, 24 h) [µM] | IC50 ([4]; A-375, 48 h) [µM] | IC50 ([4]; A-375, 72 h) [µM] | IC50 at 24 h [5, 13] [µM] | IC50 at 48 h [5, 13] [µM] | IC50 at 72 h [5, 13] [µM] | also measured
7 | > 200 | > 200 | > 200 | CC1OC(OCC2OC(Oc3cc(O)c4c(=O)cc(-c5ccc(O)cc5)oc4c3)C(O)C(O)C2O)C(O)C(O)C1O (stereo not drawn) [Compound 5, apigenin 7-O-rutinoside] | > 200 | > 200 | > 200 | > 200 | > 200 | > 200 | > 200 | > 200 | > 200 | > 200 | > 200 | > 200 | > 200 | > 200 | > 200 | 
8 | > 200 | 69.8 ± 5.8 | 51.1 ± 3.2 | O=c1c(O)c(-c2ccc(O)cc2)oc2cc(O)cc(O)c12 [Compound 18, kaempferol] | 100 to 200 | 100 to 200 | 58.4 ± 3.5 | 100 to 200 | 100 to 200 | 75.8 ± 5.8 | > 200 | 62.8 ± 3.5 | 34.4 ± 2.9 | 100 to 200 | 57.4 ± 4.6 | 47.7 ± 3.9 | 100 to 200 | 100 to 200 | 55.8 ± 4.5 | 
9 | > 200 | > 200 | 64.8 ± 5 | COc1c(O)cc(O)c2c(=O)c(O)c(-c3ccc(O)cc3)oc12 [Compound 19, 8-methoxykaempferol] | 100 to 200 | 100 to 200 | 100 to 200 | 100 to 200 | 100 to 200 | 61.8 ± 3.1 | 100 to 200 | 88.8 ± 7 | 71.9 ± 7 | 100 to 200 | 100 to 200 | 100 to 200 | > 200 | > 200 | 100 to 200 | 
10 | > 200 | > 200 | > 200 | O=c1c(O[C@@H]2O[C@H](CO)[C@@H](O)[C@H](O)[C@H]2O)c(-c2ccc(O)cc2)oc2cc(O)cc(O)c12 [Compound 20, kaempferol 3-O-glucoside] | > 200 | > 200 | > 200 | 94.2 ± 6.9 | 46.9 ± 3.5 | 21.5 ± 2.2 | > 200 | > 200 | > 200 | > 200 | > 200 | > 200 | > 200 | > 200 | > 200 | 
11 | > 200 | 92.6 ± 4.2 | 36.4 ± 0.23 | O=c1c(O)c(-c2ccc(O)c(O)c2)oc2cc(O)cc(O)c12 [Compound 24, quercetin] | > 200 | > 200 | 68.1 ± 4.6 | > 200 | > 200 | 74.4 ± 5 | > 200 | 58 ± 3.5 | 47.5 ± 4.3 | 100 to 200 | 84.7 ± 6.5 | 79.2 ± 7.3 | > 200 | > 200 | 36.1 ± 2 | 
12 | > 200 | > 200 | > 200 | O=C(O)C1OC(Oc2c(-c3ccc(O)c(O)c3)oc3cc(O)cc(O)c3c2=O)C(O)C(O)C1O (stereo not drawn) [Compound 27, quercetin 3-O-glucuronide] | > 200 | > 200 | > 200 | > 200 | > 200 | > 200 | > 200 | > 200 | 100 to 200 | > 200 | > 200 | > 200 | > 200 | > 200 | > 200 | 
13 | > 200 | > 200 | > 200 | C[C@@H]1O[C@@H](OC[C@H]2O[C@@H](Oc3c(-c4ccc(O)c(O)c4)oc4cc(O)cc(O)c4c3=O)[C@H](O)[C@@H](O)[C@@H]2O)[C@H](O)[C@H](O)[C@H]1O [Compound 28, quercetin 3-O-rutinoside] | > 200 | > 200 | > 200 | > 200 | 57 ± 3.1 | 57.8 ± 4.8 | > 200 | > 200 | > 200 | > 200 | > 200 | > 200 | > 200 | > 200 | > 200 | 
14 | > 200 | > 200 | > 200 | CC1OC(OCC2OC(Oc3c(-c4ccc(O)c(O)c4)oc4cc(OC5OC(CO)C(O)C(O)C5O)cc(O)c4c3=O)C(O)C(O)C2O)C(O)C(O)C1O (stereo not drawn) [Compound 29, quercetin 3-O-rutinoside-7-O-glucoside] | > 200 | > 200 | > 200 | > 200 | > 200 | > 200 | > 200 | > 200 | > 200 | > 200 | > 200 | > 200 | > 200 | > 200 | > 200 | 
